Measured values reported in patent publication US20260130395A1, “Water Dispersible Botanical Compositions” (Aquila Black Limited, priority 2021, published 2026).

What was measured:
[1] = Stability of cannabinoid entourage and Vitamin E components of the powder concentrate by LCMSMS; format: physicochemical; conditions: powder stored at 21-25° C.
Procedure: At each time period, 0.05 g of powder was dissolved in 10 ml-15 of ethanol, diluted to fall within the analytical range, and injected into the LCMSMS for analysis.

[2] = Stability of cannabinoid compounds and Vitamin E components in Beverage 1 (AB White) by LCMSMS; format: physicochemical; conditions: AB White stored at 8° C.

CCCCCc1cc(O)c2c(c1)OC(C)(CCC=C(C)C)C=C2 (stereo not drawn) [CBC, cannabichromene]
Stability of Plant-Derived Cannabinoid Compounds in Powder Concentrate ([1]; 0 days): 0.070 mg/g powder
Stability of Plant-Derived Cannabinoid Compounds in Powder Concentrate ([1]; 1 days): 0.072 mg/g powder
Stability of Plant-Derived Cannabinoid Compounds in Powder Concentrate ([1]; 2 days): 0.071 mg/g powder
Stability of Plant-Derived Cannabinoid Compounds in Powder Concentrate ([1]; 3 days): 0.073 mg/g powder
Stability of Plant-Derived Cannabinoid Compounds in Powder Concentrate ([1]; 5 days): 0.070 mg/g powder
Stability of Plant-Derived Cannabinoid Compounds in Powder Concentrate ([1]; 8 days): 0.071 mg/g powder
Stability of Plant-Derived Cannabinoid Compounds in Powder Concentrate ([1]; 9 days): 0.068 mg/g powder
Stability of Plant-Derived Cannabinoid Compounds in Powder Concentrate ([1]; 10 days): 0.071 mg/g powder
Stability of Plant-Derived Cannabinoid Compounds in Powder Concentrate ([1]; 11 days): 0.071 mg/g powder
Stability of Plant-Derived Cannabinoid Compounds in Powder Concentrate ([1]; 12 days): 0.069 mg/g powder
Stability of Plant-Derived Cannabinoid Compounds in Powder Concentrate ([1]; 15 days): 0.073 mg/g powder
Stability of Plant-Derived Cannabinoid Compounds in Powder Concentrate ([1]; 16 days): 0.073 mg/g powder
Stability of Plant-Derived Cannabinoid Compounds in Powder Concentrate ([1]; 17 days): 0.070 mg/g powder
Stability of Plant-Derived Cannabinoid Compounds in Powder Concentrate ([1]; 18 days): 0.072 mg/g powder
Stability of Plant-Derived Cannabinoid Compounds in Powder Concentrate ([1]; 19 days): 0.070 mg/g powder
Stability of Plant-Derived Cannabinoid Compounds in Powder Concentrate ([1]; 22 days): 0.071 mg/g powder
Stability of Plant-Derived Cannabinoid Compounds in Powder Concentrate ([1]; 23 days): 0.069 mg/g powder
Stability of Plant-Derived Cannabinoid Compounds in Powder Concentrate ([1]; 24 days): 0.068 mg/g powder
Stability of Plant-Derived Cannabinoid Compounds in Powder Concentrate ([1]; 25 days): 0.072 mg/g powder
Stability of Plant-Derived Cannabinoid Compounds in Powder Concentrate ([1]; 26 days): 0.071 mg/g powder
Stability of Plant-Derived Cannabinoid Compounds in Powder Concentrate ([1]; 29 days): 0.069 mg/g powder
Stability of Plant-Derived Cannabinoid Compounds in Powder Concentrate ([1]; 30 days): 0.072 mg/g powder
Stability of Plant-Derived Cannabinoid Compounds in Powder Concentrate ([1]; 60 days): 0.068 mg/g powder
Stability of Plant-Derived Cannabinoid Compounds in Powder Concentrate ([1]; 90 days): 0.068 mg/g powder
Stability of Plant-Derived Cannabinoid Compounds in Powder Concentrate ([1]; 120 days): 0.072 mg/g powder
Stability of Plant-Derived Cannabinoid Compounds in Powder Concentrate ([1]; 150 days): 0.072 mg/g powder
Stability of Plant-Derived Cannabinoid Compounds in Powder Concentrate ([1]; 180 days): 0.071 mg/g powder
Stability of Plant-Derived Cannabinoid Compounds in Powder Concentrate ([1]; 210 days): 0.072 mg/g powder
Stability of Plant-Derived Cannabinoid Compounds in Powder Concentrate ([1]; 240 days): 0.068 mg/g powder
Stability of Plant-Derived Cannabinoid Compounds in Powder Concentrate ([1]; 270 days): 0.072 mg/g powder
Stability of Plant-Derived Cannabinoid Compounds in Powder Concentrate ([1]; 300 days): 0.071 mg/g powder
Stability of Plant-Derived Cannabinoid Compounds in Powder Concentrate ([1]; 330 days): 0.069 mg/g powder
Stability of Plant-Derived Cannabinoid Compounds in Powder Concentrate ([1]; 360 days): 0.068 mg/g powder
Stability of Plant-Derived Cannabinoid Compounds in Powder Concentrate ([1]; 390 days): 0.068 mg/g powder
Stability of Plant-Derived Cannabinoid Compounds in Powder Concentrate ([1]; 420 days): 0.069 mg/g powder
Stability of Plant-Derived Cannabinoid Compounds in Powder Concentrate ([1]; 450 days): 0.073 mg/g powder
Stability of Plant-Derived Cannabinoid Compounds in Powder Concentrate ([1]; 480 days): 0.071 mg/g powder
Stability of Plant-Derived Cannabinoid Compounds in Powder Concentrate ([1]; 510 days): 0.069 mg/g powder
Stability of Plant-Derived Cannabinoid Compounds in Powder Concentrate ([1]; 540 days): 0.070 mg/g powder
Stability of Plant-Derived Cannabinoid Compounds in Powder Concentrate ([1]; 570 days): 0.069 mg/g powder
Stability of Plant-Derived Cannabinoid Compounds in AB White, 8° C. ([2]; 0 days): 0.320 µg/mL
Stability of Plant-Derived Cannabinoid Compounds in AB White, 8° C. ([2]; 1 days): 0.314 µg/mL
Stability of Plant-Derived Cannabinoid Compounds in AB White, 8° C. ([2]; 2 days): 0.315 µg/mL
Stability of Plant-Derived Cannabinoid Compounds in AB White, 8° C. ([2]; 3 days): 0.322 µg/mL
Stability of Plant-Derived Cannabinoid Compounds in AB White, 8° C. ([2]; 5 days): 0.322 µg/mL
Stability of Plant-Derived Cannabinoid Compounds in AB White, 8° C. ([2]; 8 days): 0.318 µg/mL
Stability of Plant-Derived Cannabinoid Compounds in AB White, 8° C. ([2]; 9 days): 0.319 µg/mL
Stability of Plant-Derived Cannabinoid Compounds in AB White, 8° C. ([2]; 10 days): 0.314 µg/mL
Stability of Plant-Derived Cannabinoid Compounds in AB White, 8° C. ([2]; 11 days): 0.314 µg/mL
Stability of Plant-Derived Cannabinoid Compounds in AB White, 8° C. ([2]; 12 days): 0.319 µg/mL
Stability of Plant-Derived Cannabinoid Compounds in AB White, 8° C. ([2]; 15 days): 0.317 µg/mL
Stability of Plant-Derived Cannabinoid Compounds in AB White, 8° C. ([2]; 16 days): 0.320 µg/mL
Stability of Plant-Derived Cannabinoid Compounds in AB White, 8° C. ([2]; 17 days): 0.315 µg/mL
Stability of Plant-Derived Cannabinoid Compounds in AB White, 8° C. ([2]; 18 days): 0.312 µg/mL
Stability of Plant-Derived Cannabinoid Compounds in AB White, 8° C. ([2]; 19 days): 0.317 µg/mL
Stability of Plant-Derived Cannabinoid Compounds in AB White, 8° C. ([2]; 22 days): 0.315 µg/mL
Stability of Plant-Derived Cannabinoid Compounds in AB White, 8° C. ([2]; 23 days): 0.321 µg/mL
Stability of Plant-Derived Cannabinoid Compounds in AB White, 8° C. ([2]; 24 days): 0.316 µg/mL
Stability of Plant-Derived Cannabinoid Compounds in AB White, 8° C. ([2]; 25 days): 0.310 µg/mL
Stability of Plant-Derived Cannabinoid Compounds in AB White, 8° C. ([2]; 26 days): 0.316 µg/mL
